Values quoted from earlier work in US20210353673A1, “CD11B + PIEZO-1 + MACROPHAGES AND USES THEREOF” (ALBERT-LUDWIGS-UNIVERSITÄT FREIBURG, priority 2018, published 2021).

Tested on: endothelial cells
Conditions: after 1 week, normal angiogenesis induced by VEGF

Substance: vascular endothelial growth factor [VEGF]
- ECs in Go phase: 93%
